Reference: patent publication US20020046680A1, “Methine compound, a recording liquid for ink jet, and an ink jet recording method” (priority 2000, published 2002)

Key:
Assay type in all cases: physicochemical
[1] = Humidity and heat fastness of recorded image (percentage of colorant remaining); details: 80° C., humidity of 70%, 7 days, percentage of colorant remaining at reflection densities 1, 1.5 and 2.0
Experimental: (§1) Images were respectively recorded on a photo glossy paper (Photo glossy paper EX, ink jet paper manufactured by Fuji Photo Film Co., Ltd.) by an ink jet printer (“PM-770C”, manufactured by Seiko Epson Co., Ltd.) using the obtained ink liquids 1 to 9. Hue, light fastness, humidity and heat fastness and ozone gas resistance of the obtained images were evaluated.
Further, regarding humidity and heat fastness, image densities before and after storage at a temperature of 80° C. and a humidity of 70% for 7 days were measured in the same manner, and evaluated in terms of the percentage of colorant remaining.
(§2) Reflection density was measured at three points which were 1, 1.5 and 2.0, and the case in which the percentage of colorant remaining were 90% or more at any of the three densities was evaluated as A, the case in which the percentage of colorant remaining was less than 90% at one or two points was evaluated as B, and the case in which the percentage of colorant remaining was less than 90% at all densities was evaluated as C.

[2] = Light fastness of recorded image (xenon light, percentage of colorant remaining); details: xenon light (85000 lux) for 7 days, percentage of colorant remaining at reflection densities 1, 1.5 and 2.0
Experimental: as §1
Regarding light fastness, an image-receiving material on which images were recorded was irradiated with xenon light (85000 lux) for 7 days using a weather meter (Atlas C. 165), the image densities before and after xenon irradiation were measured by using a reflection densitometer (X-Rite310TR), and the light fastness was evaluated in terms of the percentage of colorant remaining.
as §2

[3] = Ozone gas resistance of recorded image (percentage of colorant remaining); details: ozone gas 0.5±0.1 ppm, 7 days, room temperature, dark, percentage of colorant remaining at reflection densities 1, 1.5 and 2.0
Experimental: Regarding ozone gas resistance, the photo glossy papers on which the above-described images were formed were stood alone for 7 days in a box having an ozone gas concentration of 0.5±0.1 ppm in which were set at room temperature and in a dark room, and image densities before and after storage under ozone gas atmosphere were measured by using a reflection densitometer (X-Rite310TR), and evaluated in terms of the percentage of colorant remaining. The fore-mentioned reflection density was measured at three points which were 1, 1.5 and 2.0. The ozone gas concentration in the box was measured using an ozone gas monitor manufactured by APPLICS (Model OZG-EM-01). The case in which the percentage of colorant remaining were 70% or more at any of the densities was evaluated as A, the case in which the percentage of colorant remaining was less than 70% at one or two points was evaluated as B, and the case in which the percentage of colorant remaining was less than 70% at all densities was evaluated as C. It was evaluated at three stages.

Structure (SMILES): Cc1ccc2[nH]c3cc4c(=O)c5cc(C)ccc5[nH]c4cc3c(=O)c2c1 [C. I. Pigment Red 122]
- Humidity and heat fastness [1]: A (the percentage of colorant remaining were 90% or more at any of the three densities)
- Light fastness [2]: A (the percentage of colorant remaining were 90% or more at any of the three densities)
- ozone resistance [3]: A (the percentage of colorant remaining were 70% or more at any of the densities)
